Target: T1, human CRTH2 (Homo sapiens, UniProt Q9Y5Y4)
T1 sequence (Q9Y5Y4 1-395): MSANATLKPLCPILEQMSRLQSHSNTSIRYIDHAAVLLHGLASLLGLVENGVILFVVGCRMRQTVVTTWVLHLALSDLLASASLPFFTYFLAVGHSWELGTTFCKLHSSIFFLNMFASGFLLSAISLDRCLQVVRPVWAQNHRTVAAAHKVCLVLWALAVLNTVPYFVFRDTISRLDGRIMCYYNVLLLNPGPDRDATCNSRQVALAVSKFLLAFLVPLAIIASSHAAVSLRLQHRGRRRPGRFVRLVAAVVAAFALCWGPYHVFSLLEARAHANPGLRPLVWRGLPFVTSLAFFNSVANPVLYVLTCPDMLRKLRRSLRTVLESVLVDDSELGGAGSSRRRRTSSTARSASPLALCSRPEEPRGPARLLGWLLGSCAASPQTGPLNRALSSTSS
Test: CRTH-2 binding assay (scintillation proximity assay, inhibition of 3H-PGD2 binding)
Parameters: expressed in transfected cells; host or cells: 293EBNA-hCRTH2 cells (membrane preparation)
Settings: membranes from 293EBNA-hCRTH2 cells, 3H-PGD2 3.6 nM; Ki calculated from IC50
Description: A CRTH2 binding assay was developed to measure the ability of compounds to inhibit the binding of PGD2 to human CRTH2 using a scintillation proximity assay.
Membranes containing hCRTH2 receptors were prepared from 293EBNA-hCRTH2 cells (a 293EBNA cell line stably expressing human CRTH2). The cells were grown to confluency, harvested and washed with PBS. The cells were resuspended in 10 mM Hepes pH 7.4, 1 mM EDTA and protease inhibitors and incubated for 30 min on ice. The cells were homogenized and centrifuged for 10 min at 1000×g. The supernate was centrifuged for 30 min at 100,000×g and the membrane pellet was then resuspended in 10 mM Hepes pH 7.4 and 1 mM EDTA. The protein concentration of the membrane preparation was determined by Bradford assay (Bio-Rad).
The ability of compounds to inhibit the interaction of PGD2 to human CRTH2 was determined at seven compound concentrations. Compounds were serially diluted in DMSO then diluted into CRTH2 buffer (10 mM Hepes pH 7.4, 1 mM EDTA, 10 mM MnCl2) to six times the final desired concentration. 20 μL of the diluted compounds were transferred into non-surface binding 96-well plates (Corning). Each concentration was done in triplicate. In addition to test compounds, each plate contained 12 control wells. Six of these wells contained 20 μL of CRTH2 buffer. These wells were used to measure total binding. Six wells contained 20 μL of CRTH2 buffer plus 1.5 mM indomethacin. These wells were used to measure non-specific binding. Next, 293EBNA-hCRTH2 membranes were resuspended in CRTH2 buffer with glycerol (10 mM Hepes pH 7.4, 1 mM EDTA, 10 mM MnCl2, 25% glycerol) so that the final concentration was approximately 20 μg/100 μL. Polylysine-coated yttrium silicate SPA beads (Amersham) were added to the membrane mix to a concentration of 0.4 mg/100 μL and finally ^3H-PGD2 was added to the membrane/SPA bead mix to 3.6 nM. 100 μL of the membrane/SPA bead/^3H-PGD2 mix was added to each well of the non-surface binding plates containing the diluted compound or controls. The plates were incubated for 2 hours at room temperature with shaking and then the plates were counted on a Microbeta scintillation counter (Perkin Elmer) for 1 min per well.
IC50 values were determined from the experimental results by nonlinear regression using Prism 4.0 software. The IC50 values were then used in conjunction with the Kd for hCRTH2 and the ^3H-PGD2 concentration used in the experiment to calculate the Ki for each compound.

Structure (SMILES)	Ki [µM]
CSCCc1nc2cc(NS(=O)(=O)c3ccc(F)cc3)ccc2n1CC(=O)O [Example 5, [5-(4-Fluoro-benzenesulfonylamino)-2-(2-methylsulfanyl-ethyl)-benzoimidazol-1-yl]-acetic acid]	< 10
CC/C=C/c1nc2cc(NS(=O)(=O)c3ccc(F)cc3)ccc2n1CC(=O)O [Example 6, [2-But-1-enyl-5-(4-fluoro-benzenesulfonylamino)-benzoimidazol-1-yl]-acetic acid]	< 10
CC(Cc1nc2cc(NS(=O)(=O)c3ccc(F)cc3)ccc2n1CC(=O)O)CC(C)(C)C (stereo not drawn) [Example 8, [5-(4-Fluoro-benzenesulfonylamino)-2-(2,4,4-trimethyl-pentyl)-benzoimidazol-1-yl]-acetic acid]	> 10
C=CCOC(=O)NCCc1nc2cc(NS(=O)(=O)c3ccc(F)cc3)ccc2n1CC(=O)O [Example 11, [2-(2-Allyloxycarbonylamino-ethyl)-5-(4-fluoro-benzenesulfonylamino)-benzoimidazol-1-yl]-acetic acid]	< 10
CCCc1nc2cc(N(Cc3ccccc3)S(=O)(=O)c3ccc(F)cc3)ccc2n1CC(=O)O [Example 14, {5-[Benzyl-(4-fluoro-benzenesulfonyl)-amino]-2-propyl-benzoimidazol-1-yl}-acetic acid]	< 0.1
CCCCc1nc2cc(N(Cc3ccccc3)S(=O)(=O)c3ccc(F)cc3)ccc2n1CC(=O)O [Example 15, {5-[Benzyl-(4-fluoro-benzenesulfonyl)-amino]-2-butyl-benzoimidazol-1-yl}-acetic acid]	< 1
CC(C)c1nc2cc(N(Cc3ccccc3)S(=O)(=O)c3ccc(F)cc3)ccc2n1CC(=O)O [Example 16, {5-[Benzyl-(4-fluoro-benzenesulfonyl)-amino]-2-isopropyl-benzoimidazol-1-yl}-acetic acid]	< 1
CCCCc1nc2cc(N(C)S(=O)(=O)c3ccc(F)cc3)ccc2n1CC(=O)O [Example 17, {2-Butyl-5-[(4-fluoro-benzenesulfonyl)-methyl-amino]-benzoimidazol-1-yl}-acetic acid]	< 1
CCCc1nc2cc(N(CC(=O)OCC)S(=O)(=O)c3ccc(F)cc3)ccc2n1CC(=O)O [Example 18, {5-[Ethoxycarbonylmethyl-(4-fluoro-benzenesulfonyl)-amino]-2-propyl-benzoimidazol-1-yl}-acetic acid]	< 1
CCCc1nc2cc(N(Cc3ccc(F)cc3)S(=O)(=O)c3ccc(F)cc3)ccc2n1CC(=O)O [Example 19, {5-[(4-Fluoro-benzenesulfonyl)-(4-fluoro-benzyl)-amino]-2-propyl-benzoimidazol-1-yl}-acetic acid]	< 0.1
CCCc1nc2cc(N(CCC(C)C)S(=O)(=O)c3ccc(F)cc3)ccc2n1CC(=O)O [Example 20, {5-[(4-Fluoro-benzenesulfonyl)-(3-methyl-butyl)-amino]-2-propyl-benzoimidazol-1-yl}-acetic acid]	< 0.1
CCCc1nc2cc(N(C(C)C)S(=O)(=O)c3ccc(F)cc3)ccc2n1CC(=O)O [Example 21, {5-[(4-Fluoro-benzenesulfonyl)-isopropyl-amino]-2-propyl-benzoimidazol-1-yl}-acetic acid]	< 0.1
CCCc1nc2cc(N(Cc3csc(C)n3)S(=O)(=O)c3ccc(F)cc3)ccc2n1CC(=O)O [Example 22, {5-[(4-Fluoro-benzenesulfonyl)-(2-methyl-thiazol-4-ylmethyl)-amino]-2-propyl-benzoimidazol-1-yl}-acetic acid]	< 1
CCCc1nc2cc(N(CC3COc4ccccc4O3)S(=O)(=O)c3ccc(F)cc3)ccc2n1CC(=O)O (stereo not drawn) [Example 23, {5-[(2,3 -Dihydro-benzo[1,4]dioxin-2-ylmethyl)-(4-fluoro-benzenesulfonyl)-amino]-2-propyl-benzoimidazol-1-yl}-acetic acid]	< 0.1
CCCc1nc2cc(N(Cc3c(C)noc3C)S(=O)(=O)c3ccc(F)cc3)ccc2n1CC(=O)O [Example 24, {5-[(3,5-Dimethyl-isoxazol-4-ylmethyl)-(4-fluoro-benzenesulfonyl)-amino]-2-propyl-benzoimidazol-1-yl}-acetic acid]	< 1
CCCc1nc2cc(NC(=O)OC(C)(C)C)ccc2n1CC(=O)O [Example 25, (5-tert-Butoxycarbonylamino-2-propyl-benzoimidazol-1-yl)-acetic acid]	< 10
CCCc1nc2cc(N3C(=O)c4ccccc4S3(=O)=O)ccc2n1CC(=O)O [Example 26, [2-Propyl-5-(1,1,3-trioxo-1,3-dihydro-1λ^6-benzo[d]isothiazol-2-yl)-benzoimidazol-1-yl]-acetic acid]	< 10
CCCc1nc2cc(N(Cc3ccc(F)cc3)S(=O)(=O)c3cccc(F)c3)ccc2n1CC(=O)O [Example 27, {5-[(3-Fluoro-benzenesulfonyl)-(4-fluoro-benzyl)-amino]-2-propyl-benzoimidazol-1-yl}-acetic acid]	< 1
CCCc1nc2cc(N(Cc3ccc(F)cc3)S(=O)(=O)c3ccccc3F)ccc2n1CC(=O)O [Example 28, {5-[(2-Fluoro-benzenesulfonyl)-(4-fluoro-benzyl)-amino]-2-propyl-benzoimidazol-1-yl}-acetic acid]	< 1
CCCc1nc2cc(N(Cc3ccc(F)cc3)S(=O)(=O)CC)ccc2n1CC(=O)O [Example 29, {5-[Ethanesulfonyl-(4-fluoro-benzyl)-amino]-2-propyl-benzoimidazol-1-yl}-acetic acid]	< 1
CCCc1nc2cc(N(Cc3ccc(F)cc3)C(=O)COC)ccc2n1CC(=O)O [Example 30, {5-[(4-Fluoro-benzyl)-(2-methoxy-acetyl)-amino]-2-propyl-benzoimidazol-1-yl}-acetic acid]	< 1

Other lines, results leading:

Ki [µM]	Structure (SMILES)
< 1	CCCc1nc2cc(NS(=O)(=O)c3ccc(F)cc3)ccc2n1CC(=O)O [Example 1, [5-(4-Fluoro-benzenesulfonylamino)-2-propyl-benzoimidazol-1-yl]-acetic acid]
< 1	CCCC(C)c1nc2cc(NS(=O)(=O)c3ccc(F)cc3)ccc2n1CC(=O)O (stereo not drawn) [Example 2, [5-(4-Fluoro-benzenesulfonylamino)-2-(1-methyl-butyl)-benzoimidazol-1-yl]-acetic acid]
< 1	CCc1nc2cc(NS(=O)(=O)c3ccc(F)cc3)ccc2n1CC(=O)O [Example 3, [2-Ethyl-5-(4-fluoro-benzenesulfonylamino)-benzoimidazol-1-yl]-acetic acid]
< 10	CC(C)=CCCC(C)c1nc2cc(NS(=O)(=O)c3ccc(F)cc3)ccc2n1CC(=O)O (stereo not drawn) [Example 4, [2-(1,5-Dimethyl-hex-4-enyl)-5-(4-fluoro-benzenesulfonylamino)-benzoimidazol-1-yl]-acetic acid]
< 10	CC(C)Cc1nc2cc(NS(=O)(=O)c3ccc(F)cc3)ccc2n1CC(=O)O [Example 7, [5-(4-Fluoro-benzenesulfonylamino)-2-isobutyl-benzoimidazol-1-yl]-acetic acid]
> 10	CCCCCc1nc2cc(NS(=O)(=O)c3ccc(F)cc3)ccc2n1CC(=O)O [Example 9, [5-(4-Fluoro-benzenesulfonylamino)-2-pentyl-benzoimidazol-1-yl]-acetic acid]
> 10	CCCCC(CC)c1nc2cc(NS(=O)(=O)c3ccc(F)cc3)ccc2n1CC(=O)O (stereo not drawn) [Example 10, [2-(1-Ethyl-pentyl)-5-(4-fluoro-benzenesulfonylamino)-benzoimidazol-1-yl]-acetic acid]
< 1	CCCCc1nc2cc(NS(=O)(=O)c3ccc(F)cc3)ccc2n1CC(=O)O [Example 12, [2-Butyl-5-(4-fluoro-benzenesulfonylamino)-benzoimidazol-1-yl]-acetic acid]
< 1	CC(C)c1nc2cc(NS(=O)(=O)c3ccc(F)cc3)ccc2n1CC(=O)O [Example 13, [5-(4-Fluoro-benzenesulfonylamino)-2-isopropyl-benzoimidazol-1-yl]-acetic acid]

Source: patent US7732618B2, “Benzimidazole acetic acids exhibiting CRTH2 receptor antagonism and uses thereof” (Wyeth, priority 2004, dated 2010)
